According to paper PMC10614203, “Synthesis, Structure–Activity Relationships, Radiofluorination, and Biological Evaluation of [^18F]RM365, a Novel Radioligand for Imaging the Human Cannabinoid Receptor Type 2 (CB2R) in the Brain with PET” (Journal of Medicinal Chemistry, 2023):

How the values were obtained:
[1] = In vivo metabolism, quantification of radiometabolites by radio-HPLC in brain and plasma; set-up: species or system mouse; conditions: female CD-1 mice, 30 min p.i., i.v.
Procedure: The good in vitro results obtained for [^18F]RM365 justified its further evaluation in vivo, and we proceeded with the investigation of radioligand metabolism in mouse. The brain as well as blood samples were obtained from two female CD-1 mice 30 min after intravenous administration of [^18F]RM365. About 90% of the radioactivity detected in the brain samples accounted for intact radioligand (Figure 8), while in blood plasma, the fraction of the intact radioligand represented only 55% of the detected radioactivity (Figure 8B). Accordingly, the absence of a significant fraction of radiometabolites of [^18F]RM365 in the brain indicates the suitability of this radioligand for neuroimaging.
Figure 8 In vivo metabolism of [^18F]RM365. […]
The samples were further processed for subsequent radio-chromatographic analyses. […] The activities of supernatants and precipitates were measured in an γ-counter (1480 WIZARD, Fa. PerkinElmer), and the extraction efficiencies were calculated as the ratio of the radioactivity in the supernatant to the radioactivity in the original sample (supernatant + precipitate). The supernatants from both extractions were combined, concentrated at 70 °C under an argon stream up to a remaining volume of 100 μL, and subsequently analyzed by analytical radio-HPLC with a gradient system as applied in Section 5.2.2.

[2] = Lipophilicity log D7.4, shake flask method, n-octanol/PBS; assay type: physicochemical; conditions: n-octanol/PBS 0.01 M, pH 7.4, room temperature
Procedure: The most efficient protocol for the manual radiosynthesis of [^18F]RM365 was transferred to an automated synthesis module (Elysia-Raytest radiosynthesizer). For the biological evaluation, [^18F]RM365 was obtained with a moderate radiochemical yield of about 5% and high radiochemical purities (>99%), molar activity of about 80 GBq/μmol in a total synthesis time of 60 min (n = 6) starting with activities ranging from 8 to 13 GBq. […] RP and chiral HPLC analysis of the final product coeluted with the corresponding reference compound RM365 confirmed the identity and enantiopurity of the radioligand (Figure 5B). A log D7.4 of 3.0 ± 0.1 was determined by the shake flask method.[80],[81]
Log D7.4 of [^18F]RM365 was experimentally determined in n-octanol/PBS, 0.01 M, pH 7.4, at room temperature by the shake flask method. The measurement was performed twice in triplicate.[87]

- intact radioligand, fraction of radioactivity in blood plasma [1]: 55%
- logD [2]: 3 ± 0.1
SMILES: CC1(C)Cc2ccc(C#N)cc2[C@@H]1NC(=O)c1cc2cc([18F])ccc2[nH]1 [[^18F]RM365]
